Tested on: SK-HEP1
Assay: Antiproliferative activity against Homo sapiens (human) SKHEP1 cells
Format: functional
Conditions: SK-HEP1, read-out: pGI50 (converted)

SMILES | GI50 [µM]
CO/N=C(/COc1ccc2c(=O)c(-c3ccccc3)coc2c1)c1ccc(F)cc1 | 6.09
O=c1cc(-c2ccccc2)oc2cc(OC/C(=N/O)c3ccc(F)cc3)ccc12 | 2.3
C/C(COc1ccc2oc(-c3ccccc3)cc(=O)c2c1)=N\O | 1.9
C/C(COc1ccc2c(=O)cc(-c3ccccc3)oc2c1)=N\O | 2.8
CO/N=C(\C)COc1ccc2c(=O)cc(-c3ccccc3)oc2c1 | 2
CO/N=C(/COc1ccc2c(=O)c(-c3ccccc3)coc2c1)c1ccc(OC)cc1 | 5.29
CO/N=C(/COc1ccc2c(=O)cc(-c3ccccc3)oc2c1)c1ccc(OC)cc1 | 4.79
COc1ccc(/C(COc2ccc3c(=O)c(-c4ccccc4)coc3c2)=N\O)cc1 | 5.5
CO/N=C(/COc1ccc2c(=O)cc(-c3ccccc3)oc2c1)c1ccccc1 | 2
CO/N=C(/COc1c(-c2ccccc2)oc2ccccc2c1=O)c1ccc(F)cc1 | 13
CO/N=C(/COc1ccc2c(=O)cc(-c3ccccc3)oc2c1)c1ccc(F)cc1 | 3.3
C/C(COc1c(-c2ccccc2)oc2ccccc2c1=O)=N\O | 2.6
COc1ccc(/C(COc2ccc3c(=O)cc(-c4ccccc4)oc3c2)=N\O)cc1 | 5.59
CO/N=C(/COc1ccc2oc(-c3ccccc3)cc(=O)c2c1)c1ccc(OC)cc1 | 2
CO/N=C(/COc1ccc2oc(-c3ccccc3)cc(=O)c2c1)c1ccccc1 | 8.2
CO/N=C(/COc1ccc2oc(-c3ccccc3)cc(=O)c2c1)c1ccc(F)cc1 | 7.9
O=c1cc(-c2ccccc2)oc2ccc(OC/C(=N/O)c3ccc(F)cc3)cc12 | 2.8
CO/N=C(\C)COc1c(-c2ccccc2)oc2ccccc2c1=O | 9.2
CO/N=C(/COc1c(-c2ccccc2)oc2ccccc2c1=O)c1ccc(OC)cc1 | 11
O=c1c(-c2ccccc2)coc2cc(OC/C(=N/O)c3ccccc3)ccc12 | 6.39
CO/N=C(\C)COc1ccc2c(=O)c(-c3ccccc3)coc2c1 | 6.39
C/C(COc1ccc2c(=O)c(-c3ccccc3)coc2c1)=N\O | 7.29
CO/N=C(/COc1ccc2c(=O)c(-c3ccccc3)coc2c1)c1ccccc1 | 7.39
O=c1c(OC/C(=N/O)c2ccccc2)c(-c2ccccc2)oc2ccccc12 | 7.21
COc1ccc(/C(COc2c(-c3ccccc3)oc3ccccc3c2=O)=N\O)cc1 | 2.7
O=c1c(-c2ccccc2)coc2cc(OC/C(=N/O)c3ccc(F)cc3)ccc12 | 6.6
O=c1c(OC/C(=N/O)c2ccc(F)cc2)c(-c2ccccc2)oc2ccccc12 | 6.9
O=c1cc(-c2ccccc2)oc2cc(OC/C(=N/O)c3ccccc3)ccc12 | 2
CO/N=C(/COc1c(-c2ccccc2)oc2ccccc2c1=O)c1ccccc1 | 7.11
